Assay results as given in article PMC4364779, “IMD-4690, a Novel Specific Inhibitor for Plasminogen Activator Inhibitor-1, Reduces Allergic Airway Remodeling in a Mouse Model of Chronic Asthma via Regulating Angiogenesis and Remodeling-Related Mediators” (PLoS ONE, 2015).

Legend:
Type in all cases: in vivo, mouse
[1] = Body weight and adverse effects in Dp-sensitized mice; conditions: 10 mg/kg i.p.
From the text: Six-week-old female BALB/c mice (15–20 g) were purchased from CLEA Japan Inc. (Tokyo, Japan). Mice were maintained in the animal facility of the University of Tokushima according to the guidelines of the ethics committee of our university. The present study was approved by Institutional Animal Care and Use Committee of the University of Tokushima (Permission Number: 11134). Mice were housed under specific pathogen-free conditions with 12-h light/dark cycle in a temperature-controlled room with free access to food and water. Mice were monitored weekly for body weight and daily for food and water intake and assessed visually for signs of clinical disease including inactivity, labored respiration and ruffled fur.
(§1) All mice were sensitized on days 0 and 7 by intraperitoneal injections of 10 μg of Dp dissolved in 500 μL saline and mixed with 1mg of Alum (Sigma-Aldrich Japan). Dp-sensitized mice were challenged intranasally with 10 μg (10 μL) Dp in 70 μL saline on alternate days, 3 days per week, from days 14 to 67. The mice were also treated intraperitoneally with IMD-4690 (10 mg/kg) (Dp/IMD group) or CMC alone (Dp/CMC group) at the same day with Dp challenge. As a control, mice were challenged with saline and given CMC during this period (control/CMC group) (Fig. 1A). Each experiment was performed using six mice per group.

[2] = system: chronic allergen exposure model of bronchial asthma in mice; experiment: Mediators in lung homogenates (ELISA/activity kits), chronic Dp exposure asthma model
Experimental: as §1
The right lungs were frozen until analyzed. Frozen tissue were solubilized by homogenization in lysis buffer (Cell Signaling Technology, Inc., Danvers, Mass., USA) containing 1 tablet of Complete Protease Inhibitor Cocktail Tablets, EDTA-free (Santa Cruz Biotechnology, Inc., Santa Cruz, CA, USA), per 25 mL of buffer by using an Ultramicro homogenizer set (I.S.O.,Inc., Yokohama, Japan). Samples of the homogenate were centrifuged at 15,000 rpm for 10 min. The supernatants were stored at -80°C.
Protein concentrations were determined by the BCA method (Pierce, Rockford, IL, USA). Cytokines, growth factors, enzymes, and serum IgE were determined using commercial ELISA kits. ELISA kits and their sensitivities were as follows: IL-4, -5, -12, -13, TNF-α, IFN-γ, VEGF, TGF-β, total MMP-9, and TIMP-1 (R&D Systems, Minneapolis, MN, USA), with sensitivities of 2, 7, 2.5, 1.5, 5.1, 2, 3, 1.7, 7, and 1.4 pg/mL, respectively; active and total PAI-1 (Innovative Research Inc., Sarasota, FL, USA) with sensitivities of 20 and 32 pg/mL; active MMP-9 (MMP-9 Biotrak Activity Assay, GE Healthcare, Buckinghamshire, UK) with a sensitivity of 0.5 ng/mL; HGF (Rat HGF determination kit by EIA, Institute of Immunology Co., Ltd., Tokyo, Japan) with a sensitivity of 0.4 ng/mL; and serum IgE (ELISA mouse IgE kit, Seikagaku Biobussiness Corp., Tokyo, Japan) with a sensitivity of 0.5 ng/mL.

[3] = system: chronic allergen exposure model of bronchial asthma in mice; experiment: Lung histopathology and morphological analyses, chronic Dp asthma model
Experimental: as §1
The lung tissues were harvested, fixed in 10% formalin, and embedded in paraffin. Three-micrometer-thick sections were stained with Giemsa, Periodic acid-Schiff (PAS) or Azan Mallory.
Sections of lung tissue were stained immunohistochemically to detect α-smooth muscle actin (SMA), platelet endothelial cell adhesion molecule-1 (PECAM-1)/CD31. Mouse monoclonal anti-smooth muscle (1:800) (Thermo Fisher Scientific Inc., Fremont, CA, USA), or ready-to-use mouse monoclonal CD31 (GeneTex Inc., Irvine, CA, USA) was used as a primary antibody. For immunohistochemical staining, the VECTASTAIN ABC Kit (Vector Laboratories) and the Vector M.O.M. Immunodetection Kit (Vector Laboratories) were used according to the manufacturers’ protocols. Diaminobenzidine was used as a substrate for the immunoperoxidase reaction. Sections were lightly counterstained with hematoxylin and analyzed by bright-field microscopy.
An OLYMPUS BX61 microscope (Olympus, Tokyo, Japan) with Scion Image software was used for the morphological analysis. Eosinophils were counted according to a previously described method. The thickness of subepithelial fibrosis and smooth muscle layer were analyzed as follows. The area of subepithelial fibrosis (stained blue) and smooth muscle layer (α-SMA positive) around a bronchus was measured. The average thickness was determined by the area of the positive layer divided by the length of the internal circumference of the area. The mean values for thickness were calculated for 8–10 bronchi per left lung lobe.
To quantify the microvessel density, the number of CD31-positive blood vessels per field was counted in 5 random fields in each sample.

[4] = system: chronic allergen exposure model of bronchial asthma in mice; experiment: Serum IgE (ELISA), chronic Dp asthma model; conditions: 10 mg/kg i.p., vs Dp/CMC mice
Experimental: as §1
Protein concentrations were determined by the BCA method (Pierce, Rockford, IL, USA). Cytokines, growth factors, enzymes, and serum IgE were determined using commercial ELISA kits. […]

[5] = system: chronic allergen exposure model of bronchial asthma in mice; experiment: Total lung collagen (Sircol assay), chronic Dp asthma model; conditions: day 70, 10 mg/kg i.p., vs Dp/CMC mice
Experimental: as §1
The left lungs were harvested on day 70 and used for collagen assays. Total lung collagen was determined using a Sircol Collagen Assay kit (Biocolor Ltd, Belfast, Northern Ireland) according to the manufacturer’s instructions.

[6] = BALB/c mice, Dp challenge 8 weeks, 10 mg/kg i.p., vs Dp/CMC mice
[7] = Dp/IMD mice (10 mg/kg i.p.) vs Dp/CMC mice
[8] = ELISA, 10 mg/kg i.p., vs Dp/CMC mice

CC(C)(C)c1ccc(Oc2cc(-c3ccc(OC(F)(F)F)cc3)ccc2OCC(=O)O)cc1 [IMD-4690, 2-[[3-(4-tert-Butylphenoxy)-4'-(trifluoromethoxy) [1,1'-biphenyl]-4-yl]oxy] acetic acid]
Adverse effects in the mouse model ([1]; chronic Dp model): could not find any adverse effects | Changes in body weight ([1]; Dp-sensitized mice): did not show any weight loss | IFN-γ production in lung homogenates ([2]; 10 mg/kg i.p., vs Dp/CMC mice): inhibited | IL-4 level in lung homogenates ([2]; 10 mg/kg i.p., vs Dp/CMC mice): significantly decreased | IL-5 level in lung homogenates ([2]; 10 mg/kg i.p., vs Dp/CMC mice): significantly decreased | IL-13 level in lung homogenates ([2]; 10 mg/kg i.p., vs Dp/CMC mice): significantly decreased | Ratio of active MMP-9/TIMP-1 in lung homogenates ([2]; 10 mg/kg i.p., vs Dp/CMC mice): significantly restored | TNF-α production in lung homogenates ([2]; 10 mg/kg i.p., vs Dp/CMC mice): inhibited | Level of active PAI-1 in lung homogenates [2, 6]: significantly reduced | Level of total PAI-1 in lung homogenates [2, 6]: significantly reduced | HGF levels in lung homogenates [2, 7]: significantly higher | Proportion of active PAI-1 as a percentage of the total PAI-1 in lung homogenates [2, 7]: significantly lower | Active form of TGF-β1 in lung homogenates [2, 8]: significantly reduced | Total MMP-9 levels in lung homogenates [2, 8]: tended to decrease the total MMP-9 levels, although no significant differences were observed | VEGF concentration in lung homogenates and BALF [2, 8]: significantly reduced | Subepithelial thickness (subepithelial fibrosis) ([3]; Azan-Mallory sections, Dp/IMD mice 10 mg/kg i.p.): significantly decreased | Vascular density (CD31-positive blood vessels) ([3]; CD31 immunohistochemistry, 10 mg/kg i.p.): significantly decreased | Number of infiltrating eosinophils in the subepithelium ([3]; Giemsa-stained lung sections, 10 mg/kg i.p., vs Dp/CMC mice): significantly decreased | Number of PAS-positive cells (mucous metaplasia) ([3]; PAS staining of lungs, 10 mg/kg i.p., vs Dp/CMC mice): decreased | Subepithelial smooth muscle thickness ([3]; α-SMA immunohistochemistry, 10 mg/kg i.p.): significant reduction | Serum IgE [4]: significantly decreased | Total collagen in the lungs [5]: reduced
